Laboratory results published in patent US8969413B2.
pIC50: −log10 of the molar value. Where two headings read alike, the source gives them in different places.

Experiments:
[1] = tested on: cortical astrocytes; assay: [3H]GABA uptake in cultured cortical astrocytes; assay type: cell-based; details: Mus musculus, Astrocyte
Procedure: (§1) Cortical astrocytes were cultured essentially as previously described. Hertz L, Juurlink B H J, Hertz E, Fosmark H and Schousboe A. Preparation of Primary Cultures of Mouse (Rat) Astrocytes, in A Dissection and Tissue Culture Manual of the Nervous System (Shahar A, de Vellis J, Vernadakis A and Haber B eds) pp 105-108, Alan R. Liss, Inc., New York, 1989 The neopallium was removed from new born NMRI mice (Taconic, Denmark) and passed through an 80 μm nylon sieve and cultured in modified Dulbecco's modified Eagle's medium with fetal calf serum. The calf serum was lowered from 20% to 10% over three weeks, and finally the astrocytes were allowed to differentiate using 0.25 mM dibutyryl cyclic AMP during the last week of growth.
Cortical neurons were cultured essentially as previously described by removing the neopallium of 15-day old NMRI embryos by dissection followed by mild trypsination. Hertz E, Yu A C H, Hertz L, Juurlink B H J and Schousboe A. Preparation of Primary Cultures of Mouse Cortical Neurons, in A Dissection and Tissue Culture Manual of the Nervous System (Shahar A, de Vellis J, Vernadakis A and Haber B eds) pp 183-186, Alan R. Liss, Inc., New York, 198. […] Radioactivity was measured using Microscint™ 20 scintillation fluid (PerkinElmer) and a Packard TopCount microplate scintillation counter.

[2] = tested on: GABA transporters in neurons, astrocytes, or mammalian cells recombinantly expressing human or mouse transporter subtypes; assay: [3H]GABA uptake, all transporter systems; assay type: cell-based; details: 1 mM concentration
Procedure: tsA201 cells were cultured in GlutaMAX-I DMEM supplemented with 10% fetal bovine serum, penicillin (100 U/ml), and streptomycin (100 μg/ml) at 37° C. in a humidified atmosphere of 95% air and 5% CO2. […] J. Biol. Chem. 2007, 282, 19331-19341. […] Quantification was performed by using Microscint™ 20 scintillation fluid (PerkinElmer) and a Packard TopCount microplate scintillation counter.
as §1, with “The calf serum was lowered from 20% to 10% over three weeks, and finally the astrocytes were allowed to differentiate using 0.25 mM dibutyryl cyclic AMP during the last week of growth.” left out
Cortical neurons were cultured essentially as previously described by removing the neopallium of 15-day old NMRI embryos by dissection followed by mild trypsination. […] Radioactivity was measured using Microscint™ 20 scintillation fluid (PerkinElmer) and a Packard TopCount microplate scintillation counter.

[3] = tested on: Wistar Albino rats; assay type: in vivo; details: 20 mg/kg versus vigabatrin 200 mg/kg, 45 and 90 days
Procedure: […]. The formulations for each treatment group were prepared fresh weekly in 0.9% normal saline.
All animals were acclimated for 7 days to the test facility prior to the start of dosing and were housed in individual polycarbonate cages. The cage environment uses a standard 12 hr/12 hr light dark cycle, with standard industrial fluorescent lighting during the light cycle. During the course of the study, the animals were monitored for mortality, moribundity, clinical signs of illness, feed intake, and body weight change. Any animals found in distress for more than 24 hours were humanely euthanized. […]. […] At the conclusion of the dosing phase (5 of each sex for 45 days and 10 of each sex for 90 days), the animals entered a 5-7 day “washout” period, after which electroretinograms (ERGs) were measured for both eyes. The animals were then humanely euthanized, by CO2 asphyxiation in accordance with AVMA guidelines on euthanasia, for post-mortem pathology examinations. […]
The electroretinograms were measured with an Espion^2 ERG system with ColorDome Ganzfeld type illuminator by Diagnosys. […]

[4] = tested on: Mice; assay: corneal kindling; assay type: in vivo
Description: Mice are kindled electrically with 3 sec stimulation, 8 mA, 60 Hz, and corneal electrodes to a criterion of 10 consecutive Stage 5 seizures (facial clonus and head nodding progressing to forelimb clonus, and finally rearing and falling accompanied by a generalized clonic seizure as described by Racine). Stage 5 is generally reached after twice daily stimulation for 8 days. With continued stimulation once a day, animals usually progress to a reproducible Stage 5 after 10-14 additional days. At least 72 hours after the mice have been kindled, the test substance is administered either i.p. or p.o. and, at the previously determined TPE, each animal is given the electrical stimulus indicated above. Following stimulation, the animals are observed for the presence or absence of the rearing and falling criteria of a Stage 5 seizure. Treated animals not displaying a Stage 3, 4, or 5 seizure are considered protected. The dose of the test substance is varied between the limits of 0 and 100% efficacy, and the ED50 (mean effective dose) and 95% confidence intervals calculated by probit analysis. Mean values and the S.E.M. are calculated for the length of clonus and seizure duration and p values are determined by the Student's t-test

[5] = tested on: Sprague-Dawley rats; details: for time spent in chamber, first printed value / time spent in chamber, second printed value: 1.0 mg/kg i.p.
[6] = tested on: Sprague-Dawley rats; assay: μPET imaging of 11C-raclopride binding after cocaine
[7] = cocaine/saline+compound pairings, cocaine 20 mg/kg
[8] = saline/Compound 2 (CPP-115) pairings

Question: What does the source list for `N[C@H]1C[C@@H](C(=O)O)CC1=C(F)F` [CPP-115]?
Answer: pIC50 [1]: < 3.00; inhibitory activity at GABA transporters [2]: no inhibitory activity; visual field defects compared with vigabatrin [3]: less visual field defects than vigabatrin; Corn. Kind. TPE ([4]; Single IP drug dose, primed @ 8 mA, 60 Hz, 3 secs, for 8 days): TPE 4 hours; ED50 ([4]; ip, 192 h, read-out: Corn. Kind. ED50): 20.1 mg/kg; expression of cocaine-induced CPP ([5]; 1.0 mg/kg i.p. 2.5 h before test, cocaine 20 mg/kg, listed as 2): blocked the expression of cocaine-induced CPP; effect on cocaine-induced CPP relative to vigabatrin ([5]; 1.0 mg/kg versus vigabatrin 300 mg/kg): 300 times; time spent in chamber, first printed value [5, 7]: 7.9 ± 1.5 min; time spent in chamber, second printed value [5, 7]: 7.1 ± 1.9 min; time spent in chamber, first printed value [5, 8]: 8.1 ± 3.2 min; time spent in chamber, second printed value [5, 8]: 6.9 ± 3.9 min; effective dose, times lower than the 300 mg/kg dose of vigabatrin ([6]; 0.5 mg/kg versus 300 mg/kg): 600 times; effect on cocaine-induced increases in synaptic dopamine ([6]; 0.5 mg/kg, 2.5 h before cocaine 5.0 mg/kg i.v.): complete blockade of cocaine-induced increases in synaptic dopamine; dose blocking cocaine-induced dopamine increase and CPP, times lower than vigabatrin ([6]; μPET and CPP, summary statement): 100 times
